Measured values taken from patent publication US9884851B2, “Heterocycle-bisamide inhibitors of scavenger receptor BI” (THE BROAD INSTITUTE, INC., priority 2012, dated 2018).
“Also recorded” adds a separate entry of the source.

Legend:
[1] = tested on: endocytosis of transferrin; assay: Transferrin endocytosis assay; format: cell-based, Chinese hamster; settings: concentrations up to 35 μM
Text: Transferrin Endocytosis Assay (SA 3: AID No. 602134)
This assay measures the endocytosis of an independent ligand, transferrin, which is not taken up via SR-BI but by clathrin-mediated endocytosis; thus providing a measure of the selectivity of the inhibitors. Alexa-594-labeled transferrin is taken into the cell via endocytosis and localization of labeled transferrin can be quantitated in the various intracellular compartments. […] Inhibitors of interest should act selectively at SR-BI and should have no activity in this assay.
Cells were pre-treated with compound for 3 hours and then treated with the Alexa-594 transferrin reagent for 30 minutes (Catalog No. T-13343; Invitrogen) in serum-free media. Plates of cells were then placed onto ice, washed with ice cold PBS, and then fixed with 4% paraformaldehyde. In addition, the nuclei were stained with 300 nM 4′,6-diamidino-2-phenylindole (DAPI) (Catalog No. 21490; Invitrogen). The cells were imaged with the Molecular Devices IXM microscope. Translocation measurements were performed using MetaExpress software and normalized for cell number.

[2] = biological target: T1, purified SR-BI (mSR-BI-t1) (Mus musculus, UniProt Q61009); assay: Lipid transport assay in liposomes; format: biochemical, murine; settings: [3H]CE uptake into SR-BI liposomes
T1 construct: made in house; host or cells: HEK293S GnTI-defective cells, tetracycline-inducible promoter
T1 sequence (Q61009 1-509): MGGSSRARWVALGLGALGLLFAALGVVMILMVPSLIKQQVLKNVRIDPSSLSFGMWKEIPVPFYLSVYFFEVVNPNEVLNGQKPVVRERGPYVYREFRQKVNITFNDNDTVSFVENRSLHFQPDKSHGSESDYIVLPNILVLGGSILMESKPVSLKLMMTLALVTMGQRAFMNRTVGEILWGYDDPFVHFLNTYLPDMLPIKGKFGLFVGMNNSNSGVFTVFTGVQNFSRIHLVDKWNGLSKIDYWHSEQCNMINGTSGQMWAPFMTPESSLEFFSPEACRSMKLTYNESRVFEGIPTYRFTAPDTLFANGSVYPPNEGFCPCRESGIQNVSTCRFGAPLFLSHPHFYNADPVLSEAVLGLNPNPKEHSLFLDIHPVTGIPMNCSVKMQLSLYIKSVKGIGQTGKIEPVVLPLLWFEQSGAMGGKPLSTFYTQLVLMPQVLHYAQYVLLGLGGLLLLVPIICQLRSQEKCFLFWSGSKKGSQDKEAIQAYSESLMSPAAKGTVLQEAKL
Description: This assay provides confirmation of activity via SR-BI by measuring the uptake of [^3H]cholesteryl ester ([^3H]CE) into liposomes loaded with purified SR-BI. For the purification of C-terminally epitope-tagged murine SR-BI (mSR-BI-t1) with uniform, truncated N-linked oligosaccharide chains, we overexpressed mSR-BI-t1 in HEK293S cells. The mSR-BI-t1 was expressed in an N-acetylglucosaminyltransferase I (GnTI)-defective HEK293S derivative, HEK293S GnTI (2), which generates a glycoprotein with uniform, truncated N-linked oligosaccharide chains under the control of a tetracycline-inducible promoter. mSR-BI-t1 was immunoaffinity purified to virtual homogeneity, and the detergent-solubilized receptor was reconstituted into liposomes. Subsequently, the in vitro SR-BI-mediated selective uptake of [^3H]CE from [^3H]CE-HDL in the reconstituted liposomes was measured. […] Briefly, 20 μg of SR-BI (or an equivalent volume of protein-free buffer to generate control liposomes that are devoid of SR-BI) was reconstituted into liposomes by acetone precipitation. […] Incubation was continued for 4 hours at 37° C., and then selective uptake of [^3H]CE into liposomes was determined using the previously described filter binding assays (15). SR-BI-selective uptake values were determined.

Plasma protein binding = format: in vitro ADME; settings: human plasma; read-out: plasma protein binding (PPB), bound (converted)
SR-BI [3] = biological target: T2, SR-BI (Mus musculus, UniProt Q61009); assay: HDL binding assay (Alexa 488 HDL); format: cell-based, murine; set-up: expressed in transfected cells; host or cells: ldlA[mSR-BI], Chinese hamster ovary (CHO) cells lacking LDL receptor (Krieger Laboratory)
T2 sequence (Q61009 1-509): T1 sequence (Q61009 1-509)
Description: HDL binding was assessed using Alexa Fluor 488-labeled HDL particles. For this assay, the Alexa 488 dye was directly covalently bound to apolipoprotein components of the HDL particle via primary amines; thus, no transfer of the fluorophore to cell membranes occurs. Instead, direct binding of the HDL particles to SR-BI can be measured. As a positive control, BLT-1, which is known to increase binding, was used at 1 μM. It is possible that a compound can reduce binding of HDL to the receptor, and this would lead to a decrease in signal. This assay is used to characterize the mechanism of action of a particular compound; therefore, any outcome in the assay is acceptable. Data were normalized against DMSO and the positive control (1 μM BLT-1) in Genedata Assay Analyzer.

SR-BI [4] = biological target: T2, SR-BI; assay: Cholesterol efflux assay; format: cell-based, murine; set-up: expressed in transfected cells; host or cells: ldlA[mSR-BI], Chinese hamster ovary (CHO) cells lacking LDL receptor (Krieger Laboratory); settings: for inhibition of efflux of free cholesterol (in words): efflux to HDL
Description: SR-BI also mediates bidirectional flux (e.g. efflux) of unesterified or ‘free’ cholesterol (FC) between cells and HDL or other acceptors. This assay is used to determine if the compounds alter the efflux of free cholesterol to HDL.
On Day 0, 50,000 cells per well were plated in 24-well plates. On the following day, the media was removed and [^3H]cholesterol in lipoprotein-deficient media was added. On Day 1, the medium was replaced with Ham's F12 medium supplemented with 10% bovine lipoprotein deficient serum with 1 μCi/ml [1,2-^3H]cholesterol (40-60 Ci/mmol). On Day 3, the cells were washed to remove serum and incubated in Ham's F12 plus 1% fatty acid-free BSA. On Day 4, the cells were washed and pretreated with compounds for 1 hour. Subsequently, the cells were incubated for an additional 2 hours with the same concentrations of small molecules and with unlabeled HDL (final HDL concentration of 100 μg protein/ml). The medium was collected to determine released cholesterol, and the cells were lysed. The amount of [^3H]cholesterol in the medium and cells was determined using liquid scintillation counting. Total cellular [^3H]cholesterol was calculated as the sum of the radioactivity in the efflux medium plus the radioactivity in the cells and was used to calculate the [^3H]cholesterol efflux (percent of total [^3H]cholesterol released into the medium).

SR-BI [5] = biological target: T2, SR-BI; assay: Radioactive HDL uptake assay (wild type SR-BI); format: cell-based, murine; set-up: expressed in transfected cells; host or cells: ldlA[mSR-BI], Chinese hamster ovary (CHO) cells lacking LDL receptor (Krieger Laboratory); settings: [3H]cholesteryl ester HDL; read-out: IC50 in nonfluorescent, radiolabeled version of the uptake assay
Text: Radioactive HDL Uptake Assay (Wild Type SR-BI) (SA 8: AID No. 588836)
The goal of this assay was to verify compounds that disrupt the lipid uptake from HDL particles to SR-BI scavenger receptor-expressing cells using an alternative means of labeling HDL-particles and avoiding any type of fluorescence measurement. To measure this binding event, HDL particles are labeled with [^3H]cholesteryl ester and added to mSR-BI expressing cells. Cells take up the radioactive lipids from HDL via SR-BI in 2 to 3 hours. After significant uptake of the lipids from HDL, the radiolabel can be detected by liquid scintillation counting. The level of radioactivity correlates with the amount of HDL lipid uptake. The uptake of lipid from the HDL particles can be inhibited by the compound BLT-1 or when co-treated with an excess of unlabeled HDL. The mSR-BI expressing cells utilized in the assay are a Chinese hamster ovary (CHO) cell line lacking expression of the LDL receptors and overexpressing the scavenger receptor, SR-BI. Inhibitors of SR-BI and HDL lipid uptake will have a reduction in liquid scintillation counts.

[6] = listed as compound of Formula (II)

**Q.** Which results are given for `C[C@H](C(=O)NC1CCCC1)N(C(=O)Cn1nnc(-c2ccc3c(c2)OCO3)n1)C1CCCCC1` [ML279, (R)-2-(2-(5-(Benzo[d][1,3]dioxol-5-yl)-2H-tetrazol-2-yl)-N-cyclohexylacetamido)-N-cyclopentylpropanamide]?
**A.** endocytosis of transferrin (in words) [1]: does not inhibit endocytosis of transferrin; also recorded: not grossly perturbing cellular membrane trafficking pathways; also recorded: no effect on the endocytosis of transferrin; endocytosis of transferrin (in words) [1, 6]: does not inhibit endocytosis of transferrin; interaction with SR-BI in purified liposomes (in words) [2]: direct interaction between the probe and SR-BI; fraction unbound (Plasma protein binding): 0.235; AC50 (SR-BI [3]; Alexa Fluor 488-labeled HDL): 270 nM; effect on binding of HDL to SR-BI (in words) (SR-BI [3]; Alexa-488 labeled HDL): increases binding of HDL to the receptor; reduction of efflux of free cholesterol from cells (SR-BI [4]): about 50%; inhibition of efflux of free cholesterol (in words) (SR-BI [4]): inhibiting both SR-BI-mediated uptake of cholesteryl ester from HDL and efflux of free cholesterol to HDL particles; also recorded: inhibits efflux of free cholesterol; inhibition of efflux of free cholesterol (in words) (SR-BI [4]; [6]): inhibit efflux of cholesterol; IC50 (SR-BI [5]): 1000 nM
